The target of one assay is T1, CDC25A (Homo sapiens, UniProt P30304).
T1 construct: GST (pGEX vector) (N); made in house; host or cells: E. coli BL21
T1 sequence (P30304 1-524): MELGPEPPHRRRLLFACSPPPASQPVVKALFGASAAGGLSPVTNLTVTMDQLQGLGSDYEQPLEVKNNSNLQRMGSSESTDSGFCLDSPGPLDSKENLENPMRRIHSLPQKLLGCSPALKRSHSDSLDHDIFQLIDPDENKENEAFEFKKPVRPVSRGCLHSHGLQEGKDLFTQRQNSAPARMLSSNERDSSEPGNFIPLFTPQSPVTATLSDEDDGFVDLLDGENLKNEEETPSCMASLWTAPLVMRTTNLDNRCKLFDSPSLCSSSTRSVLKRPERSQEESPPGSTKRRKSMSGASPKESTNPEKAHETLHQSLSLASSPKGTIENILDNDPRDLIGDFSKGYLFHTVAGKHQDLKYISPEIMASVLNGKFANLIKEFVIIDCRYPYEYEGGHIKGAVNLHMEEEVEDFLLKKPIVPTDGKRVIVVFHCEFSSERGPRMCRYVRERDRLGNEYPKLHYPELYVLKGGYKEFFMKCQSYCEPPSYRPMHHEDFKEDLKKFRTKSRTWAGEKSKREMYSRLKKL
Briefly: Enzymatic assay (OMFP substrate) on recombinant CDC25A. The assay is classed as biochemical. The settings on record: for remaining activity at 20 µM: read-out: % remaining activity ± SD (Table S2, second round of selection); for IC50: dose-response on recombinant CDC25A. The protocol:
57 UPD compounds were dissolved in DMSO at 10 mM stock concentration and stored in
60 Expression and purification of CDC25 phosphatases - CDC25A (kind gift of I.
61 Hoffmann, Heidelberg, Germany), CDC25B and CDC25C (kind gift of B. Gabrielli,
62 Queensland, Australia) in pGEX were expressed in E. coli BL21 cells and purified on 1
63 ml Glutathione Sepharose 4 Fast Flow columns as described 1.
65 Enzymatic assays - CDC25A, CDC25B and CDC25C were appropriately diluted in 10
66 mM Tris-HCl pH 8.0, 50 mM NaCl and assayed in 20 mM Tris-HCl pH 8.0, 75 mM
67 NaCl, 0.5 mM EGTA, 1 mM DTT, 0.1 mg/ml BSA and defined concentrations of
68 compounds. Reactions were started by addition of the substrate OMFP (0.1 mM). Assays
69 were carried out at room temperature in duplicate or triplicate using transparent-bottom,
70 V-shaped 96 well plates and read at defined intervals on a Molecular Devices
71 SpectraMax microplate reader (ex: 490 nm / em: 525 nm). IC50 and kinetic parameters
72 calculated from Lineweaver-Burk double-reciprocal plots of the data were obtained using
73 GraphPad Prism software. […]

Assay [1] relates to HeLa cells. The assay can be described thus: Flow cytometric analysis of cell cycle progression (DNA content) in HeLa cells. Type of assay: cell-based. To be noted: for effect on the G1/S transition: HeLa synchronized at G2/M, 10 μM added in mid-G1, analysed 12 h post-release; for effect on cell cycle distribution (DNA content): asynchronous HeLa cells, 10 μM, 15 h. The protocol: Reactions were started by addition of the substrate OMFP (0.1 mM). Assays 69 were carried out at room temperature in duplicate or triplicate using transparent-bottom, 70 V-shaped 96 well plates and read at defined intervals on a Molecular Devices 71 SpectraMax microplate reader (ex: 490 nm / em: 525 nm). IC50 and kinetic parameters 72 calculated from Lineweaver-Burk double-reciprocal plots of the data were obtained using 73 GraphPad Prism software. 74 75 Cell culture - Wild-type HeLa and Kyoto HeLa cells stably expressing mCherry-H2B 76 were maintained in DMEM+L-Glutamine (Gibco, Life Technologies, USA) 77 supplemented with 5% fetal calf serum (FCS) (Gibco) and penicillin-streptomycin (100 […] A549 and Colo741 were grown and maintained like HeLa 79 cells but with 10% FCS. HCT116 were maintained in McCoy's medium supplemented 80 with 10% FCS and penicillin-streptomycin. U2OS-Tet-OFF cells expressing HA-CDC25 81 were grown and maintained in DMEM+L-Glutamine, 10% Tet-free FCS and penicillin- 82 streptomycin in the presence or the absence of 4 μg/ml tetracycline (Sigma, T7660). 83 84 Cell synchronization - Cell synchronization was performed by double thymidine block- 85 release protocol 2 or nocodazole treatment 3 and verified by flow cytometry. 86 87 Cell viability assays - Compounds viability upon 48h treatment with the compounds was 88 assessed as described 4. Data were plotted with Prism 7® and analyzed by non-linear 89 regression. Comparison of single curve fitting to all data set within an experiment was 90 performed with the extra sum-of-squares F-test to determine P values. 91 92 Western blotting - Cell lysis and immunoblot analysis were performed as previously 93 described 5. […] Cells were washed with PBS, resuspended […] To 100 quantify phosphorylation of CDK1 at Tyr15 and H2AX at S139, cells were harvested and 101 examined as described 6. Samples were measured on an AttuneTM NxT Cytometer 102 (ThermoFisher Scientific, Carlsbad, CA, USA) and data were analyzed with FlowJo® 103 software v10 (FlowJo, LLC, Ashland, OR, USA). 104 105 Real Time qRT-PCR - Organoids were lysed in Tri-Reagent (Sigma) as previously 106 described 7 and total RNA was isolated as described by manufacturer's instructions. For […] 108 High Fidelity cDNA Synthesis kit (Roche). Real-time quantitative PCR reactions were 109 performed in three independent biological replicates, each with technical triplicate, using 110 the Applied Biosystems SYBR Green Kit and monitored by the ABI Prism 7900HT 111 system (Applied Biosystem). The following primers were used: 112 Lgr5: Forward [NT] and Reverse 5'- […] 114 Lysozyme: Forward [NT] and Reverse 5'- 115 [NT]3' 116 Cryptdin: Forward [NT] and Reverse 5'- 117 [NT]-binding protein (TBP): Forward [NT] and 119 Reverse [NT] 120 […] 122 amplification curves and the melting temperature analysis of the final amplification […] 4
(In general: A flow cytometer gives signals particle by particle.)

The subject of assay [2] is HeLa cells. The assay can be described thus: Cell viability assay on HeLa cells. The assay is classed as cell-based. The settings on record: Homo sapiens, 48h treatment. The protocol:
75 Cell culture - Wild-type HeLa and Kyoto HeLa cells stably expressing mCherry-H2B
76 were maintained in DMEM+L-Glutamine (Gibco, Life Technologies, USA)
77 supplemented with 5% fetal calf serum (FCS) (Gibco) and penicillin-streptomycin (100
78 U/ml - 100 µg/ml) (Gibco). […]
87 Cell viability assays - Compounds viability upon 48h treatment with the compounds was
88 assessed as described 4. Data were plotted with Prism 7® and analyzed by non-linear
89 regression. Comparison of single curve fitting to all data set within an experiment was
90 performed with the extra sum-of-squares F-test to determine P values. […]

The next assay has as its system HCT116 tumors. The assay can be described thus: HCT116 tumor xenograft in zebrafish embryos. The assay is classed as in vivo. To be noted: 10 µM, 3 dpi. The protocol:
Implantation of HCT116 cells into zebrafish embryos were carried out essentially as previously described. Briefly, HCT116 cells were cultured in McCoy’s medium supplemented with 10% FCS and penicillin/streptomycin until ~80% confluence, then labeled for 30 min at 37 °C in 6 μg/mL 1,1′-dioctadecyl-3,3,3′,3′-tetramethylindocarbocyanine perchlorate (DiI, Sigma) in PBS followed by washing 3x in PBS. Labeled cells were implanted in the perivitelline space of 48 hours post-fertilization (hpf) wildtype (AB) zebrafish embryos, kept from the 1-cell stage in 1-phenyl-2-thiourea (PTU)-containing E3-water. […] As control, embryos were incubated in PTU-E3 with 0.1% DMSO (vehicle). Tumor-bearing embryos were incubated at 36 °C for three days and the change in tumor volume was evaluated as the size of the tumors at three days post-implantation (3 dpi) relative to the size immediately after implantation (0 dpi). Metastasis was evaluated at 3 dpi as the number of tumor cells present in the caudal hematopoietic plexus, the main metastatic site for tumors implanted in the perivitelline space.

Assay [3] has as its system HeLa cells. Briefly: Time-lapse microscopy of mitosis in synchronized HeLa cells. Type of assay: cell-based. The settings on record: synchronized HeLa Kyoto cells (mCherry-H2B, GFP-α-tubulin), 5 μM. As for the experimental part:
Cells were grown in 35 mm CellView™ cell culture dishes with glass bottom (# 627870, Greiner-BioOne) at a density of 2.5 × 10^5 cells/ml in a humidified cell incubator maintained at 37 °C and 5% CO2. Cell were viewed by phase contrast microscopy with a 10x objective using an Olympus IX 81 motorized inverted microscope (Olympus, Hamburg, Germany) equipped with external temperature control chamber and CO2 bottle to maintain cells at 37 °C with 5% CO2. Transition through mitosis was documented by acquisition of four frames per hour over a period of 14 h using a CCD camera (Orca AG, Hamamatsu) and cellR® software (Olympus). HeLa-Kyoto cells (mCherry-H2B/EGFP-α-tubulin) were visualized by fluorescence microscopy with an Olympus IX 81 microscope using a 10x objective and selecting Ex. = 492 ± 18 nm/Em. = 535 ± 50 nm for the green channel and Ex. = 572 ± 23 nm/Em. = 645 ± 75 nm for the red channel.

Setting [4] is: compound 20 µM, relative to DMSO control.

On to `O=C1C=C(c2ccc(O)cc2O)C(=O)c2ccccc21` [UPD-597, 2-(2,4-dihydroxyphenyl)-1,4-naphthoquinone], for which the remaining activity (in general, the signal under treatment as a percentage of the control signal) at 20 µM on CDC25A (setting [4]) was found to be 3.1 ± 0.3%.
Consider `O=C1C=C(c2ccc(O)c(O)c2O)C(=O)c2ccccc21` [UPD-596, 2-(2,3,4-trihydroxyphenyl)-1,4-naphthoquinone], for which, in the assay with HeLa cells [1], the “effect on the G1/S transition” value was “ineffective” and the “effect on cell cycle distribution (DNA content)” value (shortened to “effect … (DNA content)”) is given as “increase of the G1 population”. In addition, at CDC25A (setting [4]), the remaining activity at 20 µM amounted to 0%.
Regarding `O=C1C=C(c2ccc(O)c(O)c2O)C(=O)c2c(O)cccc21` [UPD-786, 8-hydroxy-2-(2,3,4 trihydroxyphenyl) naphthalene-1,4-dione], the “effect … (DNA content)” value with HeLa cells [1] was “increase of the G1 population”. In addition, the figures for the half-inhibitory concentration (IC50) in the assay on HeLa cells [2] and on CDC25A were 6.5 µM and 0.89 µM, respectively. Besides, the remaining activity at 20 µM at CDC25A (setting [4]) amounted to 0%.
Regarding `O=C1C=C(c2c(O)cc(O)cc2O)C(=O)c2c(O)cccc21` [UPD-788, 8-hydroxy-2-(2,4,6-trihydroxyphenyl)naphthalene-1,4-dione], the remaining activity at 20 µM at CDC25A (setting [4]) came to 70.1 ± 2%.
On the same count and under the same terms, the figure for `O=C1C=C(N2CCCCC2)C(=O)c2c(O)cccc21` [UPD-797, 8-hydroxy-2-(piperidin-1-yl)naphthalene-1,4-dione] is 8.5 ± 0.1%; for `O=C1C=C(N2CCOCC2)C(=O)c2c(O)cccc21` [UPD-798, N-(5-hydroxy-1,4-naphthoquinon-3-yl)morpholine] it is 41.4 ± 0.4%.
As for `Cc1ccc(SC2=CC(=O)c3cccc(O)c3C2=O)cc1` [UPD-793, 3-(p-tolylthio)juglone], in the assay with HeLa cells [1], the “effect on the G1/S transition” value is reported as “effectively blocked cells in G1” and the “effect … (DNA content)” value is given as “increase of the G1 population”. In addition, at CDC25A (setting [4]), the “% remaining activity ± SD (Table S2, second round of selection)” value is reported as 1.0 ± 0.1%. Further, the IC50 (in general, the midpoint of a concentration-inhibition curve) on CDC25A is 0.92 µM.
`Cc1cc(O)c2c(n1)C(=O)C=CC2=O` [UPD-1416, 4-Hydroxy-2-methylquinoline-5,8-dione]: the remaining activity at 20 µM at CDC25A (setting [4]) came out at 4.1%.
The same measure, in the same setting: the figure for `Cc1ccc2c(n1)C(=O)C=CC2=O` [UPD-1419, 2-methyl-5,8-dihydro-5,8-dioxoquinoline] is 1.9 ± 0.3%; for `Nc1ccc(N)c2c1C(=O)C=CC2=O` [UPD-1382, 5,8-diaminonaphthalene-1,4-dione] it is 94.4 ± 0.6%.
On to `O=C1C=CC(=O)c2c(O)cccc21` [UPD-738, 5-hydroxynaphtho-1,4-quinone], for which, in the assay on HeLa cells [1], the “effect on the G1/S transition” value is reported as “effectively blocked cells in G1” and the “effect … (DNA content)” value is “increase of the G1 population”. Further, in the assay with HCT116 tumors, the “metastasis (tumor cells in caudal hematopoietic plexus)” value was “did not appear to be significant”. For the same compound, the IC50 with HeLa cells [2] came to 4.4 µM. For the same compound, the remaining activity at 20 µM at CDC25A (setting [4]) was 5.9 ± 0.1%.
Consider `COc1ccc(C2=CC(=O)c3cccc(O)c3C2=O)c(OC)c1` [UPD-790, 8-hydroxy-2-(2,4-dimethoxyphenyl)naphthalene-1,4-dione], for which the “effect … (DNA content)” value in the assay with HeLa cells [1] is “accumulation of cells at G2/M”. Moreover, in the assay on HeLa cells [1] (double-thymidine synchronized HeLa, 10 μM added 5 h upon release, analysed 12 h post-release), the “effect on the G2/M transition” value is reported as “accretion of the G2/M peak”. Further, it took 1.41 µM to reach half-maximal inhibition with HeLa cells [2] (IC50). For the same compound, the “execution of mitosis at low dose (time-lapse)” value in the assay on HeLa cells [3] is “failed attempt to round up and execute mitosis, which was followed by membrane blebbing and death”. The remaining activity at 20 µM on CDC25A (setting [4]) is 5.6 ± 1.2%.
Turning to `O=C(O)c1ccc2c(c1)C(=O)c1c(O)ccc(O)c1C2=O` [UPD-724, 1,4-dihydroxy-6-anthraquinonecarboxylic acid], the remaining activity at 20 µM at CDC25A (setting [4]) was 98.9 ± 1.4%.

The record behind these values is paper PMC6362118, “Pharmacophore-guided discovery of CDC25 inhibitors causing cell cycle arrest and tumor regression” (Scientific Reports, 2019).
